# Test results from article PMC8003975 (Cancers, 2021).
# Where “and” joins values, the source holds several entries; their conditions need not be identical. Identical values can stand only once. Like-named read-outs stand apart in the source and are kept apart here.
# What was measured:
# survivin = test: Western blot of treated HNC cells; type: cell-based, human; settings: Cal27 and JHU029 cells, 48 hr; 2% BME or 10 µg/mL M-I
# Method: Representative Western blot image for c-Myc, survivin and cyclin D1 expression in Cal27 and JHU029 cells with treatment of BME or M-I. The same membrane used in panel A was reprobed. Actin was used as internal control. Quantitative representation of Western blot band intensities (right panel). Small bar indicates standard error (*** p < 0.001).
# Bitter melon extract (BME) was prepared from the Chinese variety of young bitter melons (raw and green) as described previously [17]. Briefly, BME was prepared by aqueous extraction from whole fruit without seeds using a household juicer at room temperature with subsequent centrifugation at 15000× g at 4 °C for 30 min. BME was stored at −80 °C for further analysis. Cal27 and JHU029 cells were treated with 2% BME and JHU022 cells were treated with 3% BME as described previously [17, 21]. […] The powder was dissolved in DMSO and added to the cells at different concentrations. Based on cytotoxicity data, Cal27 and JHU029 cells were treated with 10 µg/mL and JHU022 cells were treated with 20 µg/mL dose of M-I and incubated for 48 hr for further experiments. All the experiments were done at least in triplicate.
# HRP conjugated anti-mouse or anti-rabbit secondary antibodies were purchased from Bio-Rad (Hercules, CA, USA). The blot was reprobed with HRP conjugated β-actin antibody (1:5000; SBT) to compare protein load in each lane. […]
# [1] = Pharmacokinetic study, single dose IP or oral gavage; type: in vivo, C57Bl/6 male mice; settings: for AUC(0-t) / Tmax / AUC(0-inf) / Cmax / half-life: male, C57Bl/6, mouse; for AUC(0-inf): read-out: AUCINF_obs (converted); for Cmax / half-life: 20 mg/kg; for half-life: read-out: T½ (elimination half-life) (converted)
# Method: To evaluate the pharmacokinetic (PK) profile of M-I, a single dose (20 mg/kg) was given to C57Bl/6 male mice by either intraperitoneal injection (IP group; n = 3) or oral ga-vage (oral group; n = 3). A dose of 20 mg/kg was chosen based on previous publications. The average plasma concentration ± standard deviation at each time point is shown in Figure 5A and corresponding PK parameters are summarized in Table 2. M-I was rapidly absorbed with a maximum plasma concentration 1 h post-IP and PO dose. […] The observed elimination half-life was 0.9 h in the IP group and 2 h in the PO group. The oral group had loose stool, starting four hours post-dose, which had not re-solved by 8 h but all mice appeared normal after twenty-four hours. […] We therefore selected IP administration of M-I for subsequence studies.
# The pharmacokinetic (PK) study of M-I was performed in male C57Bl/6 mice. A sin-gle dose of M-I (formulated at 2 mg/mL dissolved in 5% DMSO/95% of a 30% w:v Captisol solution) was administered either by intraperitoneal injection (IP group, n = 3) or oral ga-vage (PO group, n = 3). After dosing, 20 µL blood samples were collected into heparin pre-coated tubes at 5 min, 15 min, 30 min, 1 h, 2 h, 4 h, 6 h, 8 h and 24 h. Samples were centrifuged, and the plasma collected. M-I concentration was determined using liq-uid chromatography-mass spectrometry/mass spectrometry (LC-MS/MS) as described earlier.
# JHU029 xenograft = test: Tumorigenicity assay, HNC xenograft model; type: in vivo, BALB/c athymic nude mice
# Method: Figure 6 Therapeutic effect of momordicine-I in JHU029 xenograft model. JHU029 cells (1.5 × 10^6) cells were injected subcutaneously into the flank of nude mice. After the formation of a palpable tumor, mice were randomly divided into three groups (n = 5): Control (without any treatment), BME group (30% BME through drinking water) and M-I group (30 mg/kg IP, once in a day and every day). (A) Body weight was measured in control and treated mice. (B) Representative images of tumors in control and treatment groups. (C) Tumors were measured using a slide caliper and tumor volumes were calculated. Arrow indicates starting point BME/M-I treatment. (D) Control or treated tumor lysates were subjected to Western blot analysis for c-Met and c-Myc expression using specific antibodies and representative bands are shown. The blot was reprobed with an antibody to Actin for normalization. […] Small bar indicates standard error (*, p < 0.05; *** p < 0.001).
# JHU029 or Cal27 cells (1.5 × 10^6) containing 40% Matrigel were injected subcutaneously into the flank of BALB/c athymic nude mice (7–8 weeks old). When the palpable tumor was developed (>60 mm^3), mice were divided into three groups randomly, 5 mice in each group. The control group was without any treatment. The BME group received 30% (v/v) BME through drinking water. M-I group received 30 mg/kg dose of M-I once in day, every day. Body weight was monitored, and tumor size was measured using a slide caliper and volume was calculated using the formula ½ L × W^2. After animal sacrifice tumors were dissected out and snap frozen in liquid nitrogen for further analysis. All the animal experiments were carried out in accordance NIH guidelines, following a protocol approved (1017) by the Institutional Animal Care and Use Committee (IACUC) of Saint Louis University.
# [2] = Pharmacokinetic study, single dose IP or oral gavage; type: in vivo, C57Bl/6 male mice; settings: male C57Bl/6 mouse blood
# [3] = JHU029 xenograft tumor lysates, Western blot, vs untreated control tumors
structure (smiles),measurement,setting,value
"CC(C)=CC(O)CC(C)[C@H]1CC[C@@]2(C)[C@@H]3[C@@H](O)C=C4[C@@H](CC[C@H](O)C4(C)C)[C@]3(C=O)CC[C@]12C (stereo partly drawn) [M-I, (3S, 7S, 8S, 9R, 10R, 13R, 14S, 17R) 3,7-dihydroxy-17-(4-hydroxy-6-methylhept-5-en-2-yl)-4,4,13,14-tetramethyl-2,3,7,8,10,11, 12,15,16,17-decahydro-1H-cyclopenta[a]phenanthrene-9-carbaldehyde]",survivin expression,survivin,significant inhibition
same,adverse events in PK study,[1]; 20 mg/kg IP,No adverse events
same,AUC (%Extrap),"[1]; 20 mg/kg IP, plasma, mean ± SD",0.33 ± 0.08%
same,AUC (%Extrap),"[1]; 20 mg/kg PO, plasma, mean ± SD",6.84 ± 1.5%
same,T½ (elimination half-life),"[1]; 20 mg/kg PO, plasma, mean ± SD",2.11 ± 0.3 h
same,adverse events in PK study,"[1]; 20 mg/kg oral gavage, starting four hours post-dose, normal after twenty-four hours",loose stool
same,AUC(0-t),"[1]; 20 mg/kg IP, plasma, mean ± SD",12700 ng·h/mL
same,Tmax,"[1]; 20 mg/kg IP, plasma, mean ± SD",1 h
same,AUC(0-inf),"[1]; 20 mg/kg IP, plasma, mean ± SD",12800 ng·h/mL
same,AUC(0-t),"[1]; 20 mg/kg PO, plasma, mean ± SD",643 ng·h/mL
same,Tmax,"[1]; 20 mg/kg PO, plasma, mean ± SD",1 ± 0.9 h
same,AUC(0-inf),"[1]; 20 mg/kg PO, plasma, mean ± SD",688 ng·h/mL
same,Cmax,"[1]; plasma, ip, 20 mg/kg IP, mean ± SD",18 µM and 8430 ng/mL
same,half-life,"[1]; plasma, ip, 20 mg/kg IP, plasma, mean ± SD",0.9 ± 0.02 h
same,Cmax,"[1]; plasma, po, 20 mg/kg PO, mean ± SD",500 nM and 214 ng/mL
same,half-life,"[1]; plasma, po, 20 mg/kg PO, plasma, mean ± SD",2 h
same,c-Met expression in tumors,JHU029 xenograft; [3],significant reduction
same,c-Myc expression in tumors,JHU029 xenograft; [3],significant reduction
same,"tumor growth reduction, M-I compared with BME","JHU029 xenograft; JHU029 xenograft, nude mice, M-I 30 mg/kg IP once a day",better effect
same,tumor volume,"JHU029 xenograft; JHU029 xenograft, nude mice, M-I 30 mg/kg IP once a day or 30% BME in drinking water, to day 32, vs untreated control",significantly reduced
same,sudden drop in body weight,"JHU029 xenograft; JHU029 xenograft, three out of five mice on Day 20, weight gained back, M-I 30 mg/kg IP once a day",~ 10%
same,stability in mouse blood,[2],stable
